From article PMC4698308, “A new amino acid substitution (Ala-205-Phe) in acetolactate synthase (ALS) confers broad spectrum resistance to ALS-inhibiting herbicides” (Planta, 2015)
Like-named read-outs stand apart in the source and are kept apart here.

Key:
[1] = test system: annual bluegrass (Poa annua L.); experiment: Whole plant non-target site resistance experiment, foramsulfuron vs sulfometuron (control and plant height 28 days after treatment); format: in vivo
Experimental: A second experiment was conducted to determine if non-target mechanisms could confer resistance to ALS inhibiting herbicides in our annual bluegrass population, POAAN-R3. ALS-resistant (RP1–RP8) and susceptible (S) plants were cultured in plastic conical containers under previously described glasshouse conditions for 28 days before being treated with foramsulfuron (29 g ha^−1) or sulfometuron-methyl (Oust XP; Dupont Professional Products. Wilmington, DE, USA) at 105 g ai ha^−1. Sulfometuron-methyl is an ALS inhibiting herbicide not metabolized by cytochrome P450 monooxygenases; therefore, it can be used to discern if weed populations survive ALS inhibiting herbicide treatment via target- or non-target site based mechanisms (Christopher et al. [1992]). Per label recommendations, sulfometuron-methyl included non-ionic surfactant at 0.25 % v/v. Treatments were mixed in water carrier applied in an enclosed spray chamber, as previously described, on 13 March 2015.
Annual bluegrass control was visually assessed on a 0 (i.e., no control) to 100 % (i.e., complete kill) scale relative to the non-treated 28 days after treatment. After all control data had been collected, plant height data were collected using a ruler placed at the soil surface of each plastic conical container and recording the distance to the tip of the bud leaf. Treatments were arranged as a 9 × 3 factorial with nine plant selections (RP1–RP8, S) and three herbicides (foramsulfuron, sulfometuron-methyl, non-treated) in a completely randomized design with four replications and repeated in separate glasshouses during March 2015.

[2] = test system: recombinant Arabidopsis thaliana ALS variant W574L; format: biochemical; conditions: IC50 mutant divided by IC50 sensitive ALS; max inhibitor concentration 1.00 × 10^−04 M
Experimental: (§1) Effects of SNPs identified in sequencing analysis on ALS activity were studied using A. thaliana. The ALS gene from A. thaliana and derivatives thereof were de novo synthesized and subcloned into pET-24d(+) (Life Technologies. Grand Island, NY, USA) using NcoI and XhoI restriction sites. Protein constructs contained an 85 amino acid N-terminal deletion (chloroplast transit peptide) and the addition of an N-terminal Hexa-histidine tag to facilitate purification.
(§2) Lysis was performed by at least two passes through a fluidizer, followed by centrifuging at 80000×g for 30 min at 4 °C. […] Fractions containing ALS protein were pooled and stored at −20 °C.
(§3) Inhibitors, purchased from Sigma as Pestanal standards (Sigma-Aldrich, Deisenhofen, Germany), were dissolved in DMSO and added to the reaction mixture. Inhibitors evaluated included imidazolinone, sulfonylurea, triazolopyrimidines, sulfonylamino-carbonyl- triazolinones, and pyrimidinyl (thio) benzoate herbicides. The reaction mixture was incubated at 30 °C for 60 min and stopped with 70 µl of H2SO4 (3 M). The reaction was then heated to 56 °C for 15 min to convert acetolactate into acetoin. […] For each inhibitor, resistance factors were calculated by dividing IC50 values for mutant and sensitive ALS.

[3] = test system: recombinant Arabidopsis thaliana ALS variant A205V; format: biochemical; conditions: IC50 mutant divided by IC50 sensitive ALS; max inhibitor concentration 1.00 × 10^−04 M
Experimental: as §1, §2, §3

[4] = target: T1, recombinant Arabidopsis thaliana ALS wild-type enzyme (WT—sensitive) (Arabidopsis thaliana, UniProt P17597); experiment: biochemical
T1 construct: Protein constructs contained an 85 amino acid N-terminal deletion (chloroplast transit peptide); Hexa-histidine tag (N); made in house
T1 sequence (P17597 86-670): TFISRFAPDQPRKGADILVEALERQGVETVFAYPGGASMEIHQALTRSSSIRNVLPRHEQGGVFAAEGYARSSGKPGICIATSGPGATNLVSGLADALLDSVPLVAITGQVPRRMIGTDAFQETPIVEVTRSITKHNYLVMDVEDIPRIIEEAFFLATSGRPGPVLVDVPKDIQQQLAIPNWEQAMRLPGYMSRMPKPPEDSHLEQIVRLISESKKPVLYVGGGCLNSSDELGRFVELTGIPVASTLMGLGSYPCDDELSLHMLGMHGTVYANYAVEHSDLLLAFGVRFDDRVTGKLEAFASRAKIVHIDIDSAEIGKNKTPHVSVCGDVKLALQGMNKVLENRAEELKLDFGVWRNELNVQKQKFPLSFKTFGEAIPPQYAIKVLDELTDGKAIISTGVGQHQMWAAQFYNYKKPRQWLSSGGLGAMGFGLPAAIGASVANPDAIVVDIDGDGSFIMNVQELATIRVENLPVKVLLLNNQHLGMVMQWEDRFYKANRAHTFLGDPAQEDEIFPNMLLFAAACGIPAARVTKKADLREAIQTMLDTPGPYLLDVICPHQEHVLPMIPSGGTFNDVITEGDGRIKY
Experimental: as §1, §2, §3

[5] = test system: annual bluegrass (Poa annua L.); experiment: Whole plant non-target site resistance experiment with P450 inhibitors malathion or PBO (control 21 days after treatment); format: in vivo; conditions: for Annual bluegrass control S: susceptible (S)
Experimental: Additional experiments were conducted during March–April 2015 to determine if non-target site based mechanisms conferred resistance to ALS inhibitors in our annual bluegrass population, POAAN-R3. Plants (RP6, RP7, and S) were cultured in plastic conical containers as previously described and allowed to acclimate to the glasshouse for 18 days prior to initiating two experiments.
In the first experiment, resistant (RP6, RP7) and susceptible (S) plants were treated with foramsulfuron at 29 g ha^−1, trifloxysulfuron (Monument. Syngenta Professional Products. Greensboro, NC, USA) at 27.8 g ha^−1, imazaquin (Image. BASF Corporation. Research Triangle Park, NC) at 27.5 g ha^−1, or bispyribac-sodium (Velocity. Valent USA Corporation. Walnut Creek, CA, USA) at 70 g ha^−1. All herbicides were applied alone or in combination with either malathion (Spectrum Group. St. Louis, MO, USA) at 1000 g ha^−1 or piperonyl butoxide (Sigma Aldrich. St. Louis, MO, USA) at 2100 g ha^−1. Malathion and piperonyl butoxide (PBO) inhibit cytochrome P450 monooxygenases involved in metabolism of ALS inhibiting herbicides and are commonly used at the application rates tested herein to evaluate non-target site based resistance mechanisms in weeds (Burnet et al. [1994]; Christopher et al. [1992]; Yu and Powles [2014b]; Rao et al. [1995]). All herbicides were mixed in water carrier and included non-ionic surfactant at 0.25 % v/v. Malathion and PBO were mixed with methanol and de-ionized water (50:50) and applied 60 min prior to herbicide application using a previously described enclosed spray chamber on 13 February 2015.
Annual bluegrass control was visually assessed on a 0 (i.e., no control) to 100 % (i.e., complete kill) scale relative to the non-treated 21 days after treatment. After all control data had been collected, aboveground biomass was harvested from each plastic conical container at the soil line using scissors, dried at 100 °C, and weighed. Treatments were arranged as a 3 × 5 × 3 factorial with three plant selections (RP6, RP7, S), five herbicides (foramsulfuron, trifloxysulfuron, imazaquin, bispyribac-sodium, non-treated) and three P450 inhibitor treatments (malathion, PBO, non-treated) in a completely randomized design with four replications and repeated in separate glasshouses during February 2015.

COC(=O)c1ccccc1S(=O)(=O)NC(=O)Nc1nc(C)cc(C)n1 [Sulfometuron, Sulfometuron-methyl]
Annual bluegrass control RP1 ([1]; RP1, 28 days after treatment, minimum of two tillers, foramsulfuron 29, sulfometuron 105 g ha^−1): 24%
Annual bluegrass height RP1 ([1]; RP1, plant height 28 days after treatment, foramsulfuron 29, sulfometuron 105 g ha^-1, non-treated 118 mm): 76 mm
Annual bluegrass control RP2 ([1]; RP2, 28 days after treatment, minimum of two tillers, foramsulfuron 29, sulfometuron 105 g ha^−1): 29%
Annual bluegrass height RP2 ([1]; RP2, plant height 28 days after treatment, foramsulfuron 29, sulfometuron 105 g ha^-1, non-treated 129 mm): 65 mm
Annual bluegrass control RP3 ([1]; RP3, 28 days after treatment, minimum of two tillers, foramsulfuron 29, sulfometuron 105 g ha^−1): 21%
Annual bluegrass height RP3 ([1]; RP3, plant height 28 days after treatment, foramsulfuron 29, sulfometuron 105 g ha^-1, non-treated 173 mm): 78 mm
Annual bluegrass control RP4 ([1]; RP4, 28 days after treatment, minimum of two tillers, foramsulfuron 29, sulfometuron 105 g ha^−1): 21%
Annual bluegrass height RP4 ([1]; RP4, plant height 28 days after treatment, foramsulfuron 29, sulfometuron 105 g ha^-1, non-treated 140 mm): 71 mm
Annual bluegrass control RP5 ([1]; RP5, 28 days after treatment, minimum of two tillers, foramsulfuron 29, sulfometuron 105 g ha^−1): 26%
Annual bluegrass height RP5 ([1]; RP5, plant height 28 days after treatment, foramsulfuron 29, sulfometuron 105 g ha^-1, non-treated 114 mm): 68 mm
Annual bluegrass control RP6 ([1]; RP6, 28 days after treatment, minimum of two tillers, foramsulfuron 29, sulfometuron 105 g ha^−1): 76%
Annual bluegrass height RP6 ([1]; RP6, plant height 28 days after treatment, foramsulfuron 29, sulfometuron 105 g ha^-1, non-treated 106 mm): 56 mm
Annual bluegrass control RP7 ([1]; RP7, 28 days after treatment, minimum of two tillers, foramsulfuron 29, sulfometuron 105 g ha^−1): 28%
Annual bluegrass height RP7 ([1]; RP7, plant height 28 days after treatment, foramsulfuron 29, sulfometuron 105 g ha^-1, non-treated 125 mm): 69 mm
Annual bluegrass control RP8 ([1]; RP8, 28 days after treatment, minimum of two tillers, foramsulfuron 29, sulfometuron 105 g ha^−1): 21%
Annual bluegrass height RP8 ([1]; RP8, plant height 28 days after treatment, foramsulfuron 29, sulfometuron 105 g ha^-1, non-treated 132 mm): 67 mm
Annual bluegrass control S ([1]; susceptible (S), 28 days after treatment, minimum of two tillers, foramsulfuron 29, sulfometuron 105 g ha^−1): 99%
Annual bluegrass height S ([1]; susceptible (S), plant height 28 days after treatment, foramsulfuron 29, sulfometuron 105 g ha^-1, non-treated 111 mm): 9 mm

COc1cc(OC)n2nc(NS(=O)(=O)c3c(C(F)(F)F)ccnc3OC)nc2n1 [Pyroxulam]
Resistance factor W574L [2]: 24,268
Resistance factor A205V [3]: 162
IC50 ([4]; concentration for 50 % inhibition of WT enzyme, max inhibitor concentration 1.00 × 10^−04 M, read-out: WT sensitivity [IC50]): 4.12 nM

CC(C)C1(C)N=C(c2ncccc2C(=O)O)NC1=O (stereo not drawn) [Imazapyr]
Resistance factor W574L [2]: 16
Resistance factor A205V [3]: 16
IC50 [4]: 6060 nM

COc1nc(C)nc(NC(=O)NS(=O)(=O)c2ccccc2CCC(F)(F)F)n1 [Prosulfuron]
Resistance factor W574L [2]: 3524
Resistance factor A205V [3]: 88
IC50 [4]: 2.88 nM

COc1cc(OC)nc(Oc2cccc(Oc3nc(OC)cc(OC)n3)c2C(=O)O)n1 [Bispyribac-sodium]
Annual bluegrass control RP6 ([5]; RP6, herbicide alone, foramsulfuron 29, trifloxysulfuron 27.8, imazaquin 27.5, bispyribac-sodium 70 g ha^−1): 28%
Annual bluegrass control RP6 ([5]; RP6, herbicide with PBO 2100 g ha^−1 applied 60 min prior): 20%
Annual bluegrass control RP6 ([5]; RP6, herbicide with malathion 1000 g ha^−1 applied 60 min prior): 32%
Annual bluegrass control RP7 ([5]; RP7, herbicide alone, foramsulfuron 29, trifloxysulfuron 27.8, imazaquin 27.5, bispyribac-sodium 70 g ha^−1): 7%
Annual bluegrass control RP7 ([5]; RP7, herbicide with PBO 2100 g ha^−1 applied 60 min prior): 14%
Annual bluegrass control RP7 ([5]; RP7, herbicide with malathion 1000 g ha^−1 applied 60 min prior): 47%
Annual bluegrass control S ([5]; herbicide alone, foramsulfuron 29, trifloxysulfuron 27.8, imazaquin 27.5, bispyribac-sodium 70 g ha^−1): 90%
Annual bluegrass control S ([5]; herbicide with PBO 2100 g ha^−1 applied 60 min prior): 86%
Annual bluegrass control S ([5]; herbicide with malathion 1000 g ha^−1 applied 60 min prior): 92%

O=C(Nc1nc(OC(F)F)cc(OC(F)F)n1)NS(=O)(=O)c1ccccc1C(=O)O [Primisulfuron]
Resistance factor W574L [2]: 5728
Resistance factor A205V [3]: 429
IC50 [4]: 3.14 nM
